Source: patent publication US9475836B2, “Protopanoxadiol derivative, preparation method thereof and application thereof” (SHANG HAI INNOVATIVE RESEARCH CENTER OF TRADITIONAL CHINESE …, priority 2013, dated 2016)
Where a name gives a salt, the structure may show the parent alone.

Tested on: CUMS rats
Test: Rat chronic unpredictable mild stress depression model (CUMS) test, sucrose preference
Type: in vivo, Wistar rats
Conditions: for effect on sucrose water intake of CUMS rats: 0.375 mg/kg
Method: Rat Chronic Unpredictable Mild Stress Depression Model (CUMS) Test
Variety: Wistar rats; Sex: male; Body Weight: 200 g.
Compounds I and II (being compounds of Examples 1 and 5 respectively), venlafaxine hydrochloride
Experimental method comprises starting CUMS program after adaptively breeding the rats for 1 week.
1) Sucrose preference experiment: all animals were fed with 1% sucrose water within the first 24 h; during the subsequent 24 h, all the animals were simultaneously fed with 1% sucrose water and common drinking water, then fasted with water deprivation for 23 h. Subsequently sucrose preference experiment was performed: simultaneously feeding the animals with 1% sucrose water and common drinking water, and measuring the drinking amounts of sucrose water and common drinking water for animals in 1 h by weighing the drinking water bottles. The animals were grouped evenly according to the animal body weight, liquid consumption amount and sucrose water consumption, and subjected to chronic unpredictable mild stress stimulation.
2) CUMS experiment: the rats were alternately given tens of stress stimulation factors each week, so that the rats cannot predict the stimulation duration of each stress factor and the stimulation to be given subsequently. The stimulation factor includes: flash stimulation, noise stimulation, rat cage inclination; and strange smell environment feeding, fasting, water deprivation.
3) Detection method comprising: detecting liquid consumption amount after food-fasting and water-deprivation for 21 h each week, recording the body weight, total liquid intake, water intake and sucrose water intake of each animal, and calculating sucrose water preference percentage (preference=(sucrose water intake/total liquid intake)×100%) and sucrose water consumption amount per gram of body weight of each rat.

[1] = 1.5 mg/kg and 0.75 mg/kg, after the fifth week (P<0.01 or 0.05)

CC(C)(O)C1CCC(C)(C2CCC3(C)C2C(=NO)CC2C4(C)CCC(=NO)C(C)(C)C4CCC23C)O1 (centres unmarked) [Compound II]
effect on sucrose water intake of CUMS rats: not significant | sucrose water intake of CUMS rats as compared to the model group [1]: statistically significant difference

CC(C)=CCCC(C)(O)C1CCC2(C)C1C(=NO)CC1C3(C)CCC(=NO)C(C)(C)C3CCC12C (centres unmarked) [Compound I]
effect on sucrose water intake of CUMS rats: not significant | sucrose water intake of CUMS rats as compared to the model group [1]: statistically significant difference

COc1ccc(C(CN(C)C)C2(O)CCCCC2)cc1 (centres unmarked) [Venlafaxine, venlafaxine hydrochloride, reference compound]
sucrose water intake of CUMS rats as compared to the model group (20 mg/kg, during the fifth week (P<0.01)): statistically significant difference
